Structures can show the parent of a compound that is named as a salt.
Experiments:
[1] = target: T1, cloned human α1D receptor (Homo sapiens, UniProt P25100); assay: Radioligand binding assay, [3H] prazosin displacement, cloned human α1D receptor; settings: [3H] prazosin 0.5 nM, membrane preparations of transfected LM(tk-) cells; read-out: hα1D Ki
T1 sequence (P25100 1-572): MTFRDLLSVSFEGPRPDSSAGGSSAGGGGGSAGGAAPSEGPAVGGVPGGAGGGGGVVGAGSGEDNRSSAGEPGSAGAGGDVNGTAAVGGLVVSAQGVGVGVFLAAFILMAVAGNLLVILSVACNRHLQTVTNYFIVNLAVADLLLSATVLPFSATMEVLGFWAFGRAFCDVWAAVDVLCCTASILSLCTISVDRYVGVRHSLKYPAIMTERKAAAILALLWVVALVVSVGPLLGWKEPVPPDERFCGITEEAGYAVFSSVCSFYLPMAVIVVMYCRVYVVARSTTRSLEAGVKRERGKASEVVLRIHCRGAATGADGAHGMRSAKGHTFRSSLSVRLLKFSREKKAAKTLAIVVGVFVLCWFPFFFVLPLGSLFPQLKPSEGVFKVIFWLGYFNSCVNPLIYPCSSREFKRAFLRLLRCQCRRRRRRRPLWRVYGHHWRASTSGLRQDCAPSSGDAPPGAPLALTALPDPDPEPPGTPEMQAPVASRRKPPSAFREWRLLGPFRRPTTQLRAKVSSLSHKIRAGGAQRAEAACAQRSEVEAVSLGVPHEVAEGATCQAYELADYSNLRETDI
Method: (§1) These cell lines were prepared by transfecting the cloned cDNA or cloned genomic DNA or constructs containing both genomic DNA and cDNA encoding the human α-adrenergic receptors as follows:
The cells were grown, in a controlled environment (37° C., 5% CO2), as monolayers in Dulbecco's modified Eagle's Medium (GIBCO, Grand Island, N.Y.) containing 25 mM glucose and supplemented with 10% bovine calf serum, 100 units/ml penicillin g, and 100 μg/ml streptomycin sulfate.
(§2) Transfected cells from culture flasks were scraped into 5 ml of 5 mM Tris-HCl, 5 mM EDTA, pH 7.5, and lysed by sonication. The cell lysates were centrifuged at 1000 rpm for 5 min at 4° C., and the supernatant was centrifuged at 30,000×g for 20 min at 4° C. The pellet was suspended in 50 mM Tris-HCl, 1 mM MgCl2, and 0.1% ascorbic acid at pH 7.5. Binding of the α1 antagonist [^3H] prazosin (0.5 nM, specific activity 76.2 Ci/mmol) to membrane preparations of LM(tk−) cells was done in a final volume of 0.25 ml and incubated at 37° C. for 20 min. Nonspecific binding was determined in the presence of 10 μM phentolamine. The reaction was stopped by filtration through GF/B filters using a cell harvester.

[2] = target: T2, cloned human α1B receptor (Homo sapiens, UniProt P35368); assay: Radioligand binding assay, [3H] prazosin displacement, cloned human α1B receptor; settings: [3H] prazosin 0.5 nM, membrane preparations of transfected LM(tk-) cells; read-out: hα1B Ki
T2 sequence (P35368 1-520): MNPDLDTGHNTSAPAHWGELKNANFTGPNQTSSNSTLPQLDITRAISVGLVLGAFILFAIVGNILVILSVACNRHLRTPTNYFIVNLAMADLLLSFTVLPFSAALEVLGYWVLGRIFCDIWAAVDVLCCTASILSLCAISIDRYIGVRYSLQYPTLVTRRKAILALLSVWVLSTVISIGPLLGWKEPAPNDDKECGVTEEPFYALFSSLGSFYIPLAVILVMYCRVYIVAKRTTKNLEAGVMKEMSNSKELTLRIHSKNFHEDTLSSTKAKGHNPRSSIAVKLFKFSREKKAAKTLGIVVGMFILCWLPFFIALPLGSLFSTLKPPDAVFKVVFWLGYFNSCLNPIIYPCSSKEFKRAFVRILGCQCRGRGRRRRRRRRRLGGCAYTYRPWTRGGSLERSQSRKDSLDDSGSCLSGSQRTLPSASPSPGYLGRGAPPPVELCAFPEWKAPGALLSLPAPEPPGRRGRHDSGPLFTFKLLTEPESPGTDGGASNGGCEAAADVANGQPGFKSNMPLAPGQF
Method: as §1
The construct involved ligating the full-length containing EcoRI brainstem cDNA fragment from λ ZapII into the expression vector. Stable cell lines were selected as described above.
as §2

[3] = target: T3, cloned human α1A receptor (Homo sapiens, UniProt P35348); assay: Radioligand binding assay, [3H] prazosin displacement, cloned human α1A receptor; settings: [3H] prazosin 0.5 nM, membrane preparations of transfected LM(tk-) cells; read-out: hα1A Ki
T3 sequence (P35348 1-466): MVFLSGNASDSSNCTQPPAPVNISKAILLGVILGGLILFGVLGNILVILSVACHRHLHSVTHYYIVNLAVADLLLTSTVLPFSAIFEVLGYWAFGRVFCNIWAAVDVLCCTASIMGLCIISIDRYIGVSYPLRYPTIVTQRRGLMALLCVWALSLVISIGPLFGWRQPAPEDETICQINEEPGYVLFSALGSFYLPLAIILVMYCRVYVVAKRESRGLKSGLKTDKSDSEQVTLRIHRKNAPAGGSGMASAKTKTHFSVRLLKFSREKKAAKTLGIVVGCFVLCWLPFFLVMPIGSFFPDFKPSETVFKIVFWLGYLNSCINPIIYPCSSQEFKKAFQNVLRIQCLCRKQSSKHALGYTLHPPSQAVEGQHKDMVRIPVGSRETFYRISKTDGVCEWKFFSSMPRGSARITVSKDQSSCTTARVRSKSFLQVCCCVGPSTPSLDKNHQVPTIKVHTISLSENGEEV
Method: as §1
The construct involved ligating three partial overlapping fragments: a 5′ 0.6 kb HincII genomic clone, a central 1.8 EcoRI hippocampal cDNA clone, and a 3′ 0.6 Kb PstI genomic clone. The hippocampal cDNA fragment overlaps with the 5′ and 3′ genomic clones so that the HincII and PstI sites at the 5′ and 3′ ends of the cDNA clone, respectively, were utilized for ligation. This full-length clone was cloned into the KpnI site of the expression vector, using the 5′ and 3′ KpnI sites of the fragment, derived from vector (i.e., pBluescript) and 3′-untranslated sequences, respectively. Stable cell lines were selected as described above.
as §2

SMILES | Ki [1] [nM] | Ki [2] [nM] | Ki [3] [nM] | melting point [°C]
CC(=O)OC1(c2ccccc2)CCN(CCCNC(=O)N2C(=O)OC(C)(C)C2c2ccc(F)c(F)c2)CC1.Cl (stereo not drawn) | – | – | – | 116 to 118
N#CC1(c2ccccc2)CCC(N2CCN(C(=O)N3C(=O)OCC3c3ccc(F)c(F)c3)CC2)CC1 (stereo not drawn) (as salt: HCl) [Example 34, 4-{4-[4-(3,4-Difluoro-phenyl)-2-oxo-oxazolidine-3-carbonyl]-piperazin-1-yl}-1-phenyl-cyclohexanecarbonitrile] | – | – | – | 148 to 151
COC(=O)C1(c2ccccc2)CCN(CCNC(=O)N2C(=O)OCC2c2ccc(F)c(F)c2)CC1 (stereo not drawn) (as salt: hydrochloride) [Example 21, 4-(3,4-Difluorophenyl)-2-oxo-oxazolidine-3-carboxylic Acid{2-[4-phenylpiperidine-4-(carboxylic Acid Methyl Ester)]ethyl}amide] | – | – | – | 80 to 85
COc1ccccc1N1CCN(CCCCCN2C(=O)OCC2c2ccc(F)c(F)c2)CC1 (stereo not drawn) (as salt: hydrochloride) [Example 2, 4-(3,4-Difluorophenyl)-3-{5-[4-(2-methoxy-phenyl)-piperazin-1-yl]-pentyl}-oxazolidin-2-one] | – | – | – | 174 to 178
COC(=O)C1(c2ccccc2)CCN(CCNC(=O)N2C(=O)OCC2c2ccc(F)c(F)c2)CC1 (stereo not drawn) [Example 21, 4-(3,4-Difluorophenyl)-2-oxo-oxazolidine-3-carboxylic Acid{2-[4-phenylpiperidine-4-(carboxylic Acid Methyl Ester)]ethyl}amide] | 2460 | 891 | 21 | –
COc1ccccc1N1CCN(CCCCCN2C(=O)OCC2c2ccc(F)c(F)c2)CC1 (stereo not drawn) [Example 2, 4-(3,4-Difluorophenyl)-3-{5-[4-(2-methoxy-phenyl)-piperazin-1-yl]-pentyl}-oxazolidin-2-one] | 11 | 21 | 0.5 | –
Cl.Cl.O=C1OCC(c2ccc(F)c(F)c2)N1C(=O)N1CCCC(CN2CCC(c3ccccn3)CC2)C1 (stereo not drawn) | – | – | – | 176 to 178

Now from value to compound:

Ki [1] [nM] | Ki [2] [nM] | Ki [3] [nM] | melting point [°C] | SMILES
3660 | 4010 | 0.7 | 135 to 137 | CC1(C)OC(=O)N(C(=O)NCC(O)CN2CCC(C#N)(c3ccccc3)CC2)C1c1ccc(F)c(F)c1.Cl (stereo not drawn) [Example 28, N3-[3-(4-Cyano-4-phenylpiperidino)-2-hydroxypropyl]-4-(3,4-difluorophenyl)-5,5-dimethyl-2-oxo-oxazolidine-3-carboxamide Hydrochloride]
– | – | – | 139 to 141 | Cl.N#CC1(c2ccccc2)CCN(CCCNC(=O)N2C(=O)OCC2(c2ccccc2)c2ccccc2)CC1
– | – | – | 149 to 151 | O=C(NCCCN1CCC(c2ccccc2)(c2ccco2)CC1)N1C(=O)OCC1c1ccc(F)c(F)c1 (stereo not drawn) (as salt: HCl)
– | – | – | 120 to 122 | CC1(C)OC(=O)N(C(=O)NCC(F)CN2CCC(C#N)(c3ccccc3)CC2)C1c1ccc(F)c(F)c1.Cl (stereo not drawn)
